Experimental data from US7883730B2, “Rumen protected lysine” (Zinpro Corporation, priority 2007, dated 2011).

Test system: Lactating Holstein Dairy Cows
Assay: Feeding evaluation: lactation responses to N-Benzylidene-L-Lysine
Assay type: in vivo
Source text: Evaluation of Feeding N-Benzylidene-L-Lysine Using Lactating Holstein Dairy Cows
All cows received the same base diet. Cows were assigned to one of two treatments: (1) control, (2) control+N-Benzylidene-L-Lysine (TrTA). N-Benzylidene-L-Lysine was supplemented at a rate to supply 40 g of Lys when cows consumed 53.0 lb dry matter/d. The control diet was formulated to be deficient of lysine. “P” refers to the probability value (p-value).

[1] = control diet deficient of lysine plus 40 g Lys from N-Benzylidene-L-Lysine, 14 days

Compound: NCCCC[C@H](N=Cc1ccccc1)C(=O)O [Trt A, N-Benzylidene-L-Lysine]
- ECM [1]: 81.3 lbs/d
- FCM [1]: 81.2 lbs/d
- Milk [1]: 77.3 lbs/d
- ECM/Feed (control diet plus 40 g Lys from N-Benzylidene-L-Lysine, 14 days): 1.53
- Fat, % (milk fat content, control diet plus 40 g Lys from N-Benzylidene-L-Lysine, 14 days): 3.81%
- Fat, lbs/d (milk fat yield, control diet plus 40 g Lys from N-Benzylidene-L-Lysine, 14 days): 2.94 lbs/d
- Protein, % (milk protein content, control diet plus 40 g Lys from N-Benzylidene-L-Lysine, 14 days): 3.14%
- Protein, lbs/d (milk protein yield, control diet plus 40 g Lys from N-Benzylidene-L-Lysine, 14 days): 2.41 lbs/d
- Lactation response versus control (conclusion in words) (versus lysine-deficient control diet, from Table 1 data): produced more milk, more protein and more fat
